The text below walks through data of patent publication US6552060B1, “Asymmetric disulfides and methods of using same” (Prolx Pharmaceuticals, Inc., priority 1997, dated 2003).

One data set deals with T1, TR/Trx (Homo sapiens, UniProt Q16881).
T1 sequence (Q16881 1-499 isoform Q16881-5): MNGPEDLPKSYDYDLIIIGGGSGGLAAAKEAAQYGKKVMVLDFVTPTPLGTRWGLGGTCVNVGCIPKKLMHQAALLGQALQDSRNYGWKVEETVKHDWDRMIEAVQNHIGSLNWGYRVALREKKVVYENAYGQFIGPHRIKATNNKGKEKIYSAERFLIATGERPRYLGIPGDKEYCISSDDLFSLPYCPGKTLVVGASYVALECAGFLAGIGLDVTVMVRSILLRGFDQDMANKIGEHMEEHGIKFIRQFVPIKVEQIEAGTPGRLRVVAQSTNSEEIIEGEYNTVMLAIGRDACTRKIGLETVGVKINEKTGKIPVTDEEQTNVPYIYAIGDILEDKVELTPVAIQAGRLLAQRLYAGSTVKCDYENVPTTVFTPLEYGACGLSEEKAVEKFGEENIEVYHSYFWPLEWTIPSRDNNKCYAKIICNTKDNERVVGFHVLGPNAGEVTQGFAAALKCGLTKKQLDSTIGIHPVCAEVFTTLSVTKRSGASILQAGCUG
Nature of the data set: Thioredoxin dependent reduction of insulin by human thioredoxin reductase and NADPH (IC50 TR/Trx, 96 well). As to conditions: Table 3; read-out: IC50 TR/Trx (converted). The class given is biochemical. The source says: When referring to the particular system being analyzed IC50 is typically followed by an abbreviation referring to that system (i.e., IC50 TR/Trx for the above described thioredoxin redox system which is comprised of thioredoxin reductase and thioredoxin).
A second plate was used for the assessment of biological activity or as a biological screen. Aliquots of disulfides dissolved in DMSO, were be transferred into 96 well plates. The assay to assess their ability to inhibit thioredoxin reductase measures the thioredoxin dependent reduction of insulin by human thioredoxin reductase and NADPH. The effects of the disulfides on the reduction of Trx by TR were measured spectrophotometrically by following the reduction of NADPH at 339 nm with insulin as the final electron acceptor in a buffered mixture of TR, Trx, NADPH and insulin.
Turning to `CC(C)CSSc1ncccc1C(=O)O` [Compound G-23], the IC50 is 57.5 µM.

Still in this data set, the particulars now being: Table 4.
Take `CC(SSCc1ccccc1)c1ccccc1` (centres unmarked) [Compound J-19]: the “Disulfide inhibition of TR/Trx (IC50 TR/Trx)” value (“Disulfide inhibition of TR/Trx” for short) was over 232 µg/mL.
Regarding `CCCCSSc1ncnc2[nH]cnc12` [Compound C-7], the “Disulfide inhibition of TR/Trx” value is 33 µg/mL.
Same read-out and setting: the value for `Cc1ccnc(SSC(C)c2ccccc2)n1` (centres unmarked) [Compound J-24] was 67 µg/mL; that for `Sc1nnc(SSCc2ccccc2)s1` [Compound I-4] was 5 µg/mL; that for `CCCCSSc1nccc(C)n1` [Compound C-24] was 48 µg/mL.
Still for that read-out and setting: for `CCCCSSc1nc2cc([N+](=O)[O-])ccc2[nH]1` [Compound C-10] the value was over 76 µg/mL; for `CCC(C)SSCc1ccc(OC)cc1` (centres unmarked) [Compound F-21], 60 µg/mL.
`CC(C)CSSCc1ccccc1` [Compound G-19]: the “Disulfide inhibition of TR/Trx” value was over 189 µg/mL.
Consider `CC(C)CSSc1nc2ccccc2o1` [Compound G-12], for which the “Disulfide inhibition of TR/Trx” value is 52 µg/mL.
`CCCCSSCc1ccc(OC)cc1` [Compound C-21]: the “Disulfide inhibition of TR/Trx” value came out at 179 µg/mL.
Still for that read-out and setting: the value for `Cn1ccnc1SSCc1ccccc1` [Compound I-2] was 100 µg/mL; that for `CCCCSSc1nnc(C)s1` [Compound C-3] was 9 µg/mL; that for `COc1ccc(CSSCC(C)C)cc1` [Compound G-21] was over 203 µg/mL.
For the molecule `CCCCSSC1CCCC1` [Compound C-27], the “Disulfide inhibition of TR/Trx” value was found to be 51 µg/mL.
Still for that read-out and setting: for `CC(SSc1nc2ccccc2[nH]1)c1ccccc1` (centres unmarked) [Compound J-8] the value was 8 µg/mL; for `CC(C)CSSc1nccn1C` [Compound G-2], 125 µg/mL.
As for `CC(SSc1nc2ccccc2o1)c1ccccc1` (centres unmarked) [Compound J-12], the “Disulfide inhibition of TR/Trx” value was 16 µg/mL.
As for `Cc1nnc(SSCc2ccccc2)s1` [Compound I-3], the “Disulfide inhibition of TR/Trx” value worked out at 9 µg/mL.
With `Cc1nnc(SSC(C)c2ccccc2)s1` (centres unmarked) [Compound J-3], the “Disulfide inhibition of TR/Trx” value worked out at 11 µg/mL.
On to `CCCCSSC(C)c1ccccc1` (centres unmarked) [Compound C-22], for which the “Disulfide inhibition of TR/Trx” value was 194 µg/mL.
`CCCCSSc1nc2ccccc2o1` [Compound C-12]: the “Disulfide inhibition of TR/Trx” value was determined as 42 µg/mL.
Same read-out and setting: the value for `CCCCSSc1ncccc1C(=O)O` [Compound C-23] was 65 µg/mL.
Turning to `Cc1ccnc(SSCc2ccccc2)n1` [Compound I-24], the “Disulfide inhibition of TR/Trx” value turned out to be 35 µg/mL.
The same measure, in the same setting: for `CCCSSc1nnc(C)s1` [Compound B-3] the value was 85 µg/mL.
On the same count and under the same terms, for `CCCCSSc1nc2ccccc2[nH]1` [Compound C-8] the value was 57 µg/mL.
On the same count and under the same terms, for `Cc1ccnc(SSCC(C)C)n1` [Compound G-24] the value was 65 µg/mL; for `CC(C)CSSc1nc2ccccc2[nH]1` [Compound G-8], 18 µg/mL; for `CC(SSc1nccn1C)c1ccccc1` (centres unmarked) [Compound J-2], 12 µg/mL.
For `COc1cccc(CSSC(C)c2ccccc2)c1` (centres unmarked) [Compound J-20], the “Disulfide inhibition of TR/Trx” value stood at 74 µg/mL.
As for `CCCCSSCc1ccccc1` [Compound C-19], the “Disulfide inhibition of TR/Trx” value is over 189 µg/mL.
Consider `Cc1nnc(SSCC(C)C)s1` [Compound G-3], for which the “Disulfide inhibition of TR/Trx” value was found to be 29 µg/mL.
Same read-out and setting: for `CCCSSc1nccn1C` [Compound B-2] the value was 75 µg/mL.
With `CCCCSSc1nnc(S)s1` [Compound C-4], the “Disulfide inhibition of TR/Trx” value was 56 µg/mL.
For `CC(SSc1nc2cc([N+](=O)[O-])ccc2[nH]1)c1ccccc1` (centres unmarked) [Compound J-10], the “Disulfide inhibition of TR/Trx” value was found to be 43 µg/mL.
On the same count and under the same terms, for `CCCSSc1nnc(S)s1` [Compound B-4] the value was 35 µg/mL; for `CC(SSc1ncccc1C(=O)O)c1ccccc1` (centres unmarked) [Compound J-23], 89 µg/mL; for `O=C(O)c1cccnc1SSCc1ccccc1` [Compound I-23], 35 µg/mL.
For the molecule `Cc1ccc2[nH]c(SSC(C)c3ccccc3)nc2c1` (centres unmarked) [Compound J-9], the “Disulfide inhibition of TR/Trx” value was 43 µg/mL.
As for `CCSSc1nnc(S)s1` [Compound A-4], the “Disulfide inhibition of TR/Trx” value came out at 35 µg/mL.
Take `CC(C)CSSC(C)c1ccccc1` (centres unmarked) [Compound G-22]: the “Disulfide inhibition of TR/Trx” value stood at 201 µg/mL.
Take `COc1ccc(CSSC(C)c2ccccc2)cc1` (centres unmarked) [Compound J-21]: the “Disulfide inhibition of TR/Trx” value was determined as 74 µg/mL.
Same read-out and setting: for `CC(SSc1nnc(S)s1)c1ccccc1` (centres unmarked) [Compound J-4] the value was 42 µg/mL.
Consider `CCSSc1ncccc1C(=O)O` [Compound A-23], for which the “Disulfide inhibition of TR/Trx” value turned out to be 35 µg/mL.
On the same count and under the same terms, for `CCCCSSCc1cccc(OC)c1` [Compound C-20] the value was 61 µg/mL; for `CCSSc1nnc(C)s1` [Compound A-3], 75 µg/mL.
The same measure, in the same setting: for `CCCCSSc1nc2cc(C)ccc2[nH]1` [Compound C-9] the value was 12 µg/mL.
As to `Cc1ccc2[nH]c(SSCC(C)C)nc2c1` [Compound G-9], the “Disulfide inhibition of TR/Trx” value came to 11 µg/mL.
Turning to `CC(SSc1nc(N)nc2[nH]cnc12)c1ccccc1` (centres unmarked) [Compound J-6], the “Disulfide inhibition of TR/Trx” value was determined as 38 µg/mL.
Turning to `CCSSc1nccc(C)n1` [Compound A-24], the “Disulfide inhibition of TR/Trx” value came out at 90 µg/mL.
Regarding `CCCCSSc1nc(N)nc2[nH]cnc12` [Compound C-6], the “Disulfide inhibition of TR/Trx” value was 33 µg/mL.
Consider `CC(C)SSc1nnc(S)s1` [Compound E-4], for which the “Disulfide inhibition of TR/Trx” value worked out at 35 µg/mL.

For a further data set, the system named is EMT6 mouse mammary tumor cells. As to the kind of experiment: Cytotoxicity against EMT6 cells in culture (MTT). As to conditions: read-out: Disulfide Cytotoxicity (IC50), Table 5, 48 h exposure.
`Cc1ccc2[nH]c(SSCCCCl)nc2c1` [Compound H-9]: the IC50 came out at 66 µM.
The same measure, in the same setting: the value for `O=C(O)CCSSc1nc2ccccc2[nH]1` [Compound N-8] was at least 180 µM; that for `CC(O)C(C)SSc1nc2cc([N+](=O)[O-])ccc2[nH]1` (centres unmarked) [Compound M-10] was 34 µM; that for `CC(C)SSc1ncnc2[nH]cnc12` [Compound E-7] was over 180 µM.
With `CC(O)C(C)SSc1nccn1C` (centres unmarked) [Compound M-2], the IC50 was at least 180 µM.
For `CC(C)SSCC(C)C(=O)N1CCCC1C(=O)O` (centres unmarked) [Compound E-28], the IC50 was over 180 µM.
As for `O=C(O)CCSSc1ncccc1C(=O)O` [Compound N-23], the IC50 turned out to be 92 µM.
As to `COc1cccc(CSSC(C)C)c1` [Compound E-20], the IC50 is over 180 µM.
Turning to `CC(CSSC(C)C(C)O)C(=O)N1CCCC1C(=O)O` (centres unmarked) [Compound M-28], the IC50 is at least 180 µM.
`Cc1nnc(SSC(C)C(C)O)s1` (centres unmarked) [Compound M-3]: the IC50 was at least 180 µM.
As to `CC(C)SSc1nc2ccccc2o1` [Compound E-12], the IC50 is over 180 µM.
Take `CC(O)C(C)SSc1ncccc1C(=O)O` (centres unmarked) [Compound M-23]: the IC50 turned out to be 96 µM.
For the molecule `O=[N+]([O-])c1ccc2[nH]c(SSCCCCl)nc2c1` [Compound H-10], the IC50 turned out to be 59 µM.
In the case of `CC(O)C(C)SSc1nc2ccccc2[nH]1` (centres unmarked) [Compound M-8], the IC50 is at least 180 µM.
Turning to `Cc1ccc2[nH]c(SSC(C)C)nc2c1` [Compound E-9], the IC50 was over 180 µM.
For the molecule `COc1cccc(CSSCCCCl)c1` [Compound H-20], the IC50 stood at 91 µM.
In the case of `CC(O)C(C)SSc1nc(N)nc2[nH]cnc12` (centres unmarked) [Compound M-6], the IC50 amounted to 32 µM.
Take `O=C(O)c1cccnc1SSCCCCl` [Compound H-23]: the IC50 came out at 69 µM.
Take `CC(C)SSc1nc2cc([N+](=O)[O-])ccc2[nH]1` [Compound E-10]: the IC50 stood at 29 µM.
In the case of `CC(C)SSC(C)c1ccccc1` (centres unmarked) [Compound E-22], the IC50 is over 180 µM.
Regarding `CCC(C)SSc1nc(N)nc2[nH]cnc12` (centres unmarked) [Compound F-6], the IC50 came out at 23 µM.
As for `ClCCCSSc1ncnc2[nH]cnc12` [Compound H-7], the IC50 was 36 µM.
Still for that read-out and setting: for `CC(C)SSc1nc2ccccc2[nH]1` [Compound E-8] the value was 66 µM; for `CC1CCC(C(C)(C)SSCCC(=O)O)C(=O)C1` (centres unmarked) [Compound N-26], at least 180 µM; for `CC(O)C(C)SSc1nc2ccccc2o1` (centres unmarked) [Compound M-12], 29 µM.
For `Cc1nnc(SSCCCCl)s1` [Compound H-3], the IC50 is over 180 µM.
As for `CC(SSC(C)C(C)O)c1ccccc1` (centres unmarked) [Compound M-22], the IC50 was at least 180 µM.
For `CC(C)SSc1nc(N)nc2[nH]cnc12` [Compound E-6], the IC50 worked out at 42 µM.
